The source of these data is patent US20230129359A1, “MUSCARINIC RECEPTOR 4 ANTAGONISTS AND METHODS OF USE” (Neurocrine Biosciences, Inc., priority 2020, published 2023).

Bounds are passed on as bounds.

This test concerns the target T1, human M4 receptor (Homo sapiens, UniProt P08173).
T1 construct: expressed in transfected cells; host or cells: CHO cells
T1 sequence (P08173 1-479): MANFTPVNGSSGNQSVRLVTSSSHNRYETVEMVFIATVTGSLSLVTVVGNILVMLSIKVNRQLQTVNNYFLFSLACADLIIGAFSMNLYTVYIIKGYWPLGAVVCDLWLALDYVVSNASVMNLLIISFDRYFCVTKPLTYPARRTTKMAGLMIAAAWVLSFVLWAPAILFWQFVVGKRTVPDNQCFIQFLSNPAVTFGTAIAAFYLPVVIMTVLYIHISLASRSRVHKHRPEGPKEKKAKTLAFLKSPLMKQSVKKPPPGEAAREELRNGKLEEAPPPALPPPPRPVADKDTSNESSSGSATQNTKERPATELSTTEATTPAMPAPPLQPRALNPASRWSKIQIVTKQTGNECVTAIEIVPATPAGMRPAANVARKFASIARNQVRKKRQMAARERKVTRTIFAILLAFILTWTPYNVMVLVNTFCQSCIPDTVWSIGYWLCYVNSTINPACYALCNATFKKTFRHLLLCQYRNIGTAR
Kind of test: Radioligand ([3H]N-methylscopolamine) binding assay, membranes from CHO cells expressing human M4 receptor. To be noted: Ki against human M4 receptor; membranes from CHO cells; tritiated N-methylscopolamine 1.5 nM; read-out: K. A digest of the protocol: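 Ki values derive from displacement of tritiated N-methylscopolamine (1.5 nM) from human M4 receptor in CHO membranes. Membranes, radioligand and twelve-point compound series were incubated together at 37 °C for 90 minutes in pH 7.4 HEPES/NaCl/MgCl2/EDTA buffer. Rapid vacuum filtration over polyethylenimine-pretreated filters was followed by radioactivity counting.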
For the compound `C[C@@H]1CN(c2ncc3ccccc3n2)[C@@H](C)CN1C(=O)NC1CC2(C1)CN(Cc1ccccc1)C2` [Compound 212, (2R,5S)-N-{2-benzyl-2-azaspiro[3.3]heptan-6-yl}-2,5-dimethyl-4-(quinazolin-2-yl)piperazine-1-carboxamide], the Ki is less than 10 nM.

As for `C[C@@H]1CN(c2ncc3ccccc3n2)CCN1C(=O)NC1CC2(C1)CN(Cc1ccccc1)C2` [Compound 213, (2R)-N-{2-benzyl-2-azaspiro[3.3]heptan-6-yl}-2-methyl-4-(quinazolin-2-yl)piperazine-1-carboxamide], the Ki fell in the range of 10 to 100 nM.

In the case of `C[C@@H]1CN(c2cnc3ccccc3n2)C[C@H](C)N1C(=O)NC1CC2(C1)CN(Cc1ccccc1)C2` [Compound 214, (2R,6S)-N-{2-benzyl-2-azaspiro[3.3]heptan-6-yl}-2,6-dimethyl-4-(quinoxalin-2-yl)piperazine-1-carboxamide], the Ki lay within 10 to 100 nM.

`COc1ccc2nc(N3C[C@@H](C)N(C(=O)NC4CC5(C4)CN(Cc4ccccc4)C5)[C@@H](C)C3)cnc2c1` [Compound 215, (2R,6S)-N-{2-benzyl-2-azaspiro[3.3]heptan-6-yl}-4-(6-methoxyquinoxalin-2-yl)-2,6-dimethylpiperazine-1-carboxamide]: the Ki lay in the range of 10 to 100 nM.

Turning to `C[C@@H]1CN(c2nc3ccc(C(F)(F)F)cc3s2)C[C@H](C)N1C(=O)NC1CC2(C1)CN(Cc1ccccc1)C2` [Compound 216, (2R,6S)-N-{2-benzyl-2-azaspiro[3.3]heptan-6-yl}-2,6-dimethyl-4-[6-(trifluoromethyl)-1,3-benzothiazol-2-yl)piperazine-1-carboxamide], the Ki is less than 10 nM.

Consider `C[C@@H]1CN(c2nc3ccc(C(F)(F)F)cc3s2)C[C@@H](C)N1C(=O)NC1CC2(C1)CN(Cc1ccccc1)C2` [Compound 217, (2R,6R)-N-{2-benzyl-2-azaspiro[3.3]heptan-6-yl}-2,6-dimethyl-4-[6-(trifluoromethyl)-1,3-benzothiazol-2-yl]piperazine-1-carboxamide], for which the Ki was less than 10 nM.

In the case of `COc1ccc2nc(N3C[C@@H](C)N(C(=O)NC4CC5(C4)CN(Cc4ccccc4)C5)[C@H](C)C3)cnc2c1` [Compound 219, (2R,6R)-N-{2-benzyl-2-azaspiro[3.3]heptan-6-yl}-4-(6-methoxyquinoxalin-2-yl)-2,6-dimethylpiperazine-1-carboxamide], the Ki was in the range of 10 to 100 nM.

In the case of `COc1ccc2nc(N3C[C@@H](C)N(C(=O)NC4CC5(C4)CN(Cc4ccccc4)C5)C[C@@H]3C)cnc2c1` [Compound 222, (2R,5S)-N-{2-benzyl-2-azaspiro[3.3]heptan-6-yl}-4-(6-methoxyquinoxalin-2-yl)-2,5-dimethylpiperazine-1-carboxamide], the Ki is less than 10 nM.

Regarding `C[C@@H]1CN(c2cnc3ccccc3n2)CCN1C(=O)NC1CC2(C1)CN(Cc1ccccc1)C2` [Compound 224, (2R)-N-{2-benzyl-2-azaspiro[3.3]heptan-6-yl}-2-methyl-4-(quinoxalin-2-yl)piperazine-1-carboxamide], the Ki was in the range of 10 to 100 nM.

On to `C[C@@H]1CN(c2nc3ccc(C(F)(F)F)cc3s2)CCN1C(=O)NC1CC2(C1)CN(Cc1ccccc1)C2` [Compound 225, (2R)-N-{2-bnezyl-2-azaspiro[3.3]heptan-6-yl}-2-methyl-4-[6-(trifluoromethyl)-1,3-benzothiazol-2-yl]piperazine-1-carboxamide], for which the Ki was less than 10 nM.

`C[C@@H]1CN(c2ncc(C(F)(F)F)cc2F)C[C@H](C)N1C(=O)NC1CC2(C1)CN(Cc1ccccc1)C2` [Compound 227, (2R,6S)-N-{2-benzyl-2-azaspiro[3.3]heptan-6-yl}-4-[3-fluoro-5-(trifluoromethyl)pyridin-2-yl]-2,6-dimethylpiperazine-1-carboxamide]: the Ki is less than 10 nM.

On to `C[C@@H]1CN(c2nc3ccc(F)cc3s2)C[C@H](C)N1C(=O)NC1CC2(C1)CN(Cc1ccccc1)C2` [Compound 231, (2R,6S)-N-{2-benzyl-2-azaspiro[3.3]heptan-6-yl}-4-(6-fluoro-1,3-benzothiazol-2-yl)-2,6-dimethylpiperazine-1-carboxamide], for which the Ki was less than 10 nM.

Regarding `C[C@@H]1CN(c2nc3ccc(F)cc3s2)[C@@H](C)CN1C(=O)NC1CC2(C1)CN(Cc1ccccc1)C2` [Compound 233, (2R,5S)-N-{2-benzyl-2-azaspiro[3.3]heptan-6-yl}-4-(6-fluoro-1,3-benzothiazol-2-yl)-2,5-dimethylpiperazine-1-carboxamide], the Ki was less than 10 nM.

`C[C@@H]1CN(c2nc3ccc(F)cc3s2)CCN1C(=O)NC1CC2(C1)CN(Cc1ccccc1)C2` [Compound 234, (2R)-N-{2-benzyl-2-azaspiro[3.3]heptan-6-yl}-4-(6-fluoro-1,3-benzothiazol-2-yl)-2-methylpiperazine-1-carboxamide]: the Ki is less than 10 nM.

Take `C[C@@H]1CN(c2cnc3cc(C(F)(F)F)ccc3n2)C[C@H](C)N1C(=O)NC1CC2(C1)CN(Cc1ccccc1)C2` [Compound 235, (2R,6S)-N-{2-benzyl-2-azaspiro[3.3]heptan-6-yl}-2,6-dimethyl-4-[6-(trifluoromethyl)quinoxalin-2-yl]piperazine-1-carboxamide]: the Ki is 10 to 100 nM.

For `C[C@@H]1CN(c2cnc3cc(C(F)(F)F)ccc3n2)[C@@H](C)CN1C(=O)NC1CC2(C1)CN(Cc1ccccc1)C2` [Compound 237, (2R,5S)-N-{2-benzyl-2-azaspiro[3.3]heptan-6-yl}-2,5-dimethyl-4-[6-(trifluoromethyl)quinoxalin-2-yl]piperazine-1-carboxamide], the Ki is less than 10 nM.

On to `COc1ccc2nc(N3C[C@@H](C)N(C(=O)NC4CC5(C4)CN(Cc4ccccc4)C5)[C@H](C)C3)sc2c1` [Compound 242, (2R,6R)-N-{2-benzyl-2-azaspiro[3.3]heptan-6-yl}-4-(6-methoxy-1,3-benzothiazol-2-yl)-2,6-dimethylpiperazine-1-carboxamide], for which the Ki was less than 10 nM.

Consider `C[C@@H]1CN(c2nc3ccccc3s2)[C@@H](C)CN1C(=O)NC1CC2(C1)CN(Cc1ccccc1)C2` [Compound 244, (2R,5S)-4-(1,3-benzothiazol-2-yl)-N-{2-benzyl-2-azaspiro[3.3]heptan-6-yl}-2,5-dimethylpiperazine-1-carboxamide], for which the Ki is less than 10 nM.

Consider `C[C@@H]1CN(c2nc3ccccc3s2)CCN1C(=O)NC1CC2(C1)CN(Cc1ccccc1)C2` [Compound 245, (2R)-4-(1,3-benzothiazol-2-yl)-N-{2-benzyl-2-azaspiro[3.3]heptan-6-yl}-2-methylpiperazine-1-carboxamide], for which the Ki is 10 to 100 nM.

For `C[C@@H]1CN(c2ncc(OC(F)F)cn2)C[C@H](C)N1C(=O)NC1CC2(C1)CN(Cc1ccccc1)C2` [Compound 247, (2R,6S)-N-{2-benzyl-2-azaspiro[3.3]heptan-6-yl}-4-[5-(difluoromethoxy)pyrimidin-2-yl]-2,6-dimethylpiperazine-1-carboxamide], the Ki was in the range of 10 to 100 nM.

Regarding `C[C@@H]1CN(c2ncc(C(F)(F)F)c(N)n2)C[C@H](C)N1C(=O)NC1CC2(C1)CN(Cc1ccccc1)C2` [Compound 248, (2R,6S)-4-[4-amino-5-(trifluoromethyl)pyrimidin-2-yl]-N-{2-benzyl-2-azaspiro[3.3]heptan-6-yl}-2,6-dimethylpiperazine-1-carboxamide], the Ki is less than 10 nM.

On to `C[C@@H]1CN(c2ncc(F)cn2)C[C@H](C)N1C(=O)NC1CC2(C1)CN(Cc1ccccc1)C2` [Compound 250, (2R,6S)-N-{2-benzyl-2-azaspiro[3.3]heptan-6-yl}-4-(5-fluoropyrimidin-2-yl)-2,6-dimethylpiperazine-1-carboxamide], for which the Ki fell in the range of 100 to 1000 nM.

Regarding `C[C@@H]1CN(c2ncc(C#N)cn2)C[C@H](C)N1C(=O)NC1CC2(C1)CN(Cc1ccc(Cl)cc1)C2` [Compound 251, (2R,6S)-N-{2-[(4-chlorophenyl)methyl]-2-azaspiro[3.3]heptan-6-yl}-4-(5-cyanopyrimidin-2-yl)-2,6-dimethylpiperazine-1-carboxamide], the Ki lay in the range of 10 to 100 nM.

As to `C[C@@H]1CN(c2ncc(C(F)(F)F)cn2)C[C@@H](C)N1C(=O)NC1CC2(C1)CN(Cc1ccc(Cl)cc1)C2` [Compound 255, (2R,6R)-N-{2-[(4-chlorophenyl)methyl]-2-azaspiro[3.3]heptan-6-yl}-2,6-dimethyl-4-[5-(trifluoromethyl)pyrimidin-2-yl]piperazine-1-carboxamide], the Ki is 10 to 100 nM.

In the case of `C[C@@H]1CN(c2ncc(C(F)(F)F)cn2)[C@@H](C)CN1C(=O)NC1CC2(C1)CN(Cc1ccc(Cl)cc1)C2` [Compound 256, (2R,5S)-N-{2-[(4-chlorophenyl)methyl]-2-azaspiro[3.3]heptan-6-yl}-2,5-dimethyl-4-[5-(trifluoromethyl)pyrimidin-2-yl]piperazine-1-carboxamide], the Ki is less than 10 nM.

On to `C[C@@H]1CN(c2ncc(C(F)(F)F)cn2)CCN1C(=O)NC1CC2(C1)CN(Cc1ccc(Cl)cc1)C2` [Compound 257, (2R)-N-{2-[(4-chlorophenyl)methyl]-2-azaspiro[3.3]heptan-6-yl}-2-methyl-4-[5-(trifluoromethyl)pyrimidin-2-yl]piperazine-1-carboxamide], for which the Ki lay in the range of 100 to 1000 nM.
